Results published in patent US9115169B2, “Method of treating tumors” (Lytix Biopharma AS, priority 2000, dated 2015).
≈ marks a conversion by molar mass, not a printed value. Read-outs that look alike come from different tables or passages of the source. Where a SMILES comes first, the peptide text is derived from it. [ ]: non-standard residue; d: D form. The star is where a group is joined. 2Nal = N[C@@H](Cc1ccc2ccccc2c1)C(=O)O; βNA = c1ccc2cc(N*)ccc2c1; OBn = c1ccc(CO*)cc1

Columns and labels:
[1] = tested on: Staphylococcus aureus ATCC 25923; conditions: ATCC 25923
MRSE ATCC 27626 [2] = tested on: MRSE ATCC 27626
MRSE ATCC 27626 [3] = tested on: MRSE ATCC 27626; remark: listed apart in the source
[4] = tested on: Staphylococcus aureus ATCC 25923
[5] = tested on: Escherichia coli ATCC 25922
MRSA ATCC 33591 [6] = tested on: MRSA ATCC 33591
MRSA ATCC 33591 [7] = tested on: MRSA ATCC 33591; remark: listed apart in the source
[8] = tested on: Escherichia coli ATCC 25922; conditions: ATCC 25922

| SMILES | MIC MRSE (MRSE ATCC 27626 [3]; ATCC 27626) | MIC S. aureus ([4]; ATCC 25923) | MIC E. coli ([5]; ATCC 25922) | MIC MRSA (MRSA ATCC 33591 [6]; ATCC 33591) | MBC S. aureus [1] | MBC MRSE (MRSE ATCC 27626 [2]) | MBC MRSA (MRSA ATCC 33591 [7]) | MBC E. coli [8] | Minimum inhibitory concentration MRSE (MRSE ATCC 27626 [3]; ATCC 27626) [µg/mL] | Minimum inhibitory concentration S. aureus ([4]; ATCC 25923) [µg/mL] | Minimum inhibitory concentration E. coli ([5]; ATCC 25922) [µg/mL] | Minimum inhibitory concentration MRSA (MRSA ATCC 33591 [6]; ATCC 33591) [µg/mL] | Minimum inhibitory concentration MRSE (MRSE ATCC 27626 [3]; Table 9) [µg/mL] | Minimum inhibitory concentration S. aureus ([4]; Table 9) [µg/mL] | Minimum inhibitory concentration E. coli ([5]; Table 9) [µg/mL] | Minimum inhibitory concentration MRSA (MRSA ATCC 33591 [6]; Table 9) [µg/mL] |
| --- | --- | --- | --- | --- | --- | --- | --- | --- | --- | --- | --- | --- | --- | --- | --- | --- |
| N=C(N)NCCC[C@H](NC(=O)[C@H](Cc1ccc(O)cc1)NC(=O)[C@H](CCCNC(=N)N)NC(=O)[C@H](Cc1ccc2ccccc2c1)NC(=O)[C@@H](N)CCCNC(=N)N)C(=O)N[C@@H](Cc1ccc2ccccc2c1)C(N)=O [Arg-(2-Nal)-Arg-Tyr-Arg-(2-Nal)NH2] (H-R[2Nal]RYR[2Nal]-NH2; N-terminus assumed) | 2.5 µg/mL (≈ 2.4 µM) | 5 µg/mL (≈ 4.79 µM) | 10 µg/mL (≈ 9.59 µM) | 2.5 µg/mL (≈ 2.4 µM) | 5 µg/mL (≈ 4.79 µM) | 2.5 µg/mL (≈ 2.4 µM) | 5 µg/mL (≈ 4.79 µM) | 15 µg/mL (≈ 14.4 µM) | – | – | – | – | – | – | – | – |
| NCCCC[C@H](N)C(=O)N[C@@H](Cc1c[nH]c2ccccc12)C(=O)OCc1ccccc1 [KW-Obzl] (H-Lys-Trp-OBn; N-terminus assumed) | 25 µg/mL (≈ 59.2 µM) | 37.5 µg/mL (≈ 88.8 µM) | >300 µg/mL | 37.5 µg/mL (≈ 88.8 µM) | – | – | – | – | 25 (≈ 59.2 µM) | 37.5 (≈ 88.8 µM) | >300 | 37.5 (≈ 88.8 µM) | – | – | – | – |
| N=C(N)NCCC[C@H](N)C(=O)N[C@@H](Cc1c[nH]c2ccccc12)C(=O)OCc1ccccc1 [RW OBz] (H-Arg-Trp-OBn) | 20 (20) μg/ml | 50 (50) μg/ml | >200 (>200) μg/ml | 25 µg/mL (≈ 55.5 µM) | 50 (50) μg/ml | 20 (20) μg/ml | 50 µg/mL (≈ 111 µM) | >200 (>200) μg/ml | – | – | – | – | – | – | – | – |
| COC(=O)[C@H](Cc1c[nH]c2ccccc12)NC(=O)[C@@H](N)CCCNC(=N)N [RW-OMe] (H-Arg-Trp-OMe; N-terminus assumed) | 200.0 µg/mL (≈ 534 µM) | >300.0 µg/mL | >300.0 µg/mL | >300.0 µg/mL | – | – | – | – | – | – | – | – | – | – | – | – |
| COC(=O)[C@H](CCCNC(=N)N)NC(=O)[C@H](Cc1c[nH]c2ccccc12)NC(=O)[C@@H](N)CCCNC(=N)N [RWR-OMe, H-L-Arg-L-Trp-L-Arg-OMe] (H-Arg-Trp-Arg-OMe) | – | – | – | – | >200 (>200) μg/ml | 200 µg/mL (≈ 377 µM) | >200 (>200) μg/ml | >200 (>200) μg/ml | – | – | – | – | – | – | – | – |
| N=C(N)NCCC[C@H](NC(=O)[C@H](Cc1c[nH]c2ccccc12)NC(=O)[C@@H](N)CCCNC(=N)N)C(=O)N[C@@H](Cc1c[nH]c2ccccc12)C(=O)OCc1ccccc1 [RWRW-OBzl, H-L-Arg-L-Trp-L-Arg-L-Trp-OBzl] (H-RWRW-OBn) | 2.5 (2.5) μg/ml | 5 µg/mL (≈ 6.31 µM) | 75 µg/mL (≈ 94.6 µM) | 5 µg/mL (≈ 6.31 µM) | 5 to 10 µg/mL | 2.5 (2.5) μg/ml | 5 to 10 µg/mL | 100 µg/mL (≈ 126 µM) | – | – | – | – | – | – | – | – |
| N=C(N)NCCC[C@H](N)C(=O)N[C@@H](Cc1c[nH]c2ccccc12)C(=O)Nc1ccc2ccccc2c1 [RWβNA] (H-Arg-Trp-βNA) | – | – | – | – | – | – | – | – | – | – | – | – | 12.5 (≈ 25.7 µM) | 12.5 (≈ 25.7 µM) | 100 (≈ 206 µM) | 12.5 (≈ 25.7 µM) |
| COC(=O)[C@H](CCCNC(=N)N)NC(=O)[C@@H](N)Cc1c[nH]c2ccccc12 [WR-OMe, H-L-Trp-L-Arg-OMe] (H-Trp-Arg-OMe) | – | – | – | – | >200 (>200) μg/ml | >200 (>200) μg/ml | >200 (>200) μg/ml | >200 (>200) μg/ml | – | – | – | – | – | – | – | – |
| COC(=O)[C@H](CCCNC(=N)N)NC(=O)[C@H](Cc1c[nH]c2ccccc12)NC(=O)[C@@H](N)Cc1c[nH]c2ccccc12 [WWR-OMe, H-L-Trp-L-Trp-L-Arg-OMe] (H-Trp-Trp-Arg-OMe) | – | – | – | – | >200 (>200) μg/ml | >200 (>200) μg/ml | >200 (>200) μg/ml | >200 (>200) μg/ml | – | – | – | – | – | – | – | – |

More lines, main results first:

| MIC MRSE (MRSE ATCC 27626 [3]; ATCC 27626) | MIC S. aureus ([4]; ATCC 25923) | MIC E. coli ([5]; ATCC 25922) | MIC MRSA (MRSA ATCC 33591 [6]; ATCC 33591) | SMILES | MBC S. aureus [1] | MBC MRSE (MRSE ATCC 27626 [2]) | MBC MRSA (MRSA ATCC 33591 [7]) | MBC E. coli [8] | Minimum inhibitory concentration MRSE (MRSE ATCC 27626 [3]; ATCC 27626) [µg/mL] | Minimum inhibitory concentration S. aureus ([4]; ATCC 25923) [µg/mL] | Minimum inhibitory concentration E. coli ([5]; ATCC 25922) [µg/mL] | Minimum inhibitory concentration MRSA (MRSA ATCC 33591 [6]; ATCC 33591) [µg/mL] | Minimum inhibitory concentration MRSE (MRSE ATCC 27626 [3]; Table 9) [µg/mL] | Minimum inhibitory concentration S. aureus ([4]; Table 9) [µg/mL] | Minimum inhibitory concentration E. coli ([5]; Table 9) [µg/mL] | Minimum inhibitory concentration MRSA (MRSA ATCC 33591 [6]; Table 9) [µg/mL] |
| --- | --- | --- | --- | --- | --- | --- | --- | --- | --- | --- | --- | --- | --- | --- | --- | --- |
| – | 75 µg/mL (≈ 105 µM) | – | – | COC(=O)[C@H](CCCNC(=N)N)NC(=O)[C@H](Cc1c[nH]c2ccccc12)NC(=O)[C@H](Cc1c[nH]c2ccccc12)NC(=O)[C@@H](N)CCCNC(=N)N [RWWR-OMe, H-L-Arg-L-Trp-L-Trp-L-Arg-OMe] (H-RWWR-OMe) | 100 to 200 µg/mL | 20 (20) μg/ml | 100 to 200 µg/mL | >200 (>200) μg/ml | – | – | – | – | – | – | – | – |
| 2.5 (2.5) μg/ml | 5 (5) μg/ml | 75 µg/mL (≈ 94.6 µM) | 2.5 to 5 µg/mL | N=C(N)NCCC[C@H](N)C(=O)N[C@@H](Cc1c[nH]c2ccccc12)C(=O)N[C@H](CCCNC(=N)N)C(=O)N[C@H](Cc1c[nH]c2ccccc12)C(=O)OCc1ccccc1 [RWrw-OBzl, H-L-Arg-L-Trp-D-Arg-D-Trp-OBzl] (H-RW[dR][dW]-OBn) | 5 (5) μg/ml | 2.5 (2.5) μg/ml | 5 µg/mL (≈ 6.31 µM) | 75 to 100 µg/mL | – | – | – | – | – | – | – | – |
| 25 µg/mL (≈ 55.5 µM) | 37.5 µg/mL (≈ 83.2 µM) | >300 µg/mL | 37.5 µg/mL (≈ 83.2 µM) | N=C(N)NCCC[C@H](N)C(=O)N[C@H](Cc1c[nH]c2ccccc12)C(=O)OCc1ccccc1 [Rw-OBzl] (H-Arg-[dW]-OBn; N-terminus assumed) | – | – | – | – | – | – | – | – | – | – | – | – |
| 5 (5) μg/ml | 5 (5) μg/ml | 75 µg/mL (≈ 118 µM) | 5 µg/mL (≈ 7.85 µM) | N=C(N)NCCC[C@H](NC(=O)[C@@H](N)Cc1c[nH]c2ccccc12)C(=O)N[C@@H](Cc1c[nH]c2ccccc12)C(=O)OCc1ccccc1 [WRW OBz] (H-Trp-Arg-Trp-OBn) | 5 (5) μg/ml | 5 (5) μg/ml | 10 µg/mL (≈ 15.7 µM) | 200 µg/mL (≈ 314 µM) | – | – | – | – | – | – | – | – |
| 25 µg/mL (≈ 55.5 µM) | 37.5 µg/mL (≈ 83.2 µM) | >300 µg/mL | 50 µg/mL (≈ 111 µM) | N=C(N)NCCC[C@@H](N)C(=O)N[C@@H](Cc1c[nH]c2ccccc12)C(=O)OCc1ccccc1 [rW-Obzl] (H-[dR]-Trp-OBn; N-terminus assumed) | – | – | – | – | – | – | – | – | – | – | – | – |
| 20 µg/mL (≈ 44.4 µM) | 50 µg/mL (≈ 111 µM) | >200 (>200) μg/ml | 50 µg/mL (≈ 111 µM) | N=C(N)NCCC[C@@H](N)C(=O)N[C@H](Cc1c[nH]c2ccccc12)C(=O)OCc1ccccc1 [rw OBz] (H-[dR]-[dW]-OBn) | 75 µg/mL (≈ 166 µM) | 25 µg/mL (≈ 55.5 µM) | 75 µg/mL (≈ 166 µM) | >200 (>200) μg/ml | – | – | – | – | – | – | – | – |
| 10 (10) μg/ml | 20 (20) μg/ml | 75 µg/mL (≈ 118 µM) | 20 (20) μg/ml | N=C(N)NCCC[C@H](NC(=O)[C@H](N)Cc1c[nH]c2ccccc12)C(=O)N[C@@H](Cc1c[nH]c2ccccc12)C(=O)OCc1ccccc1 [wRW OBz] (H-[dW]-Arg-Trp-OBn) | 20 (20) μg/ml | 10 (10) μg/ml | 20 (20) μg/ml | 100 µg/mL (≈ 157 µM) | – | – | – | – | – | – | – | – |
| 5 (5) μg/ml | 5 (5) μg/ml | 75 µg/mL (≈ 118 µM) | 5 µg/mL (≈ 7.85 µM) | N=C(N)NCCC[C@@H](NC(=O)[C@H](N)Cc1c[nH]c2ccccc12)C(=O)N[C@H](Cc1c[nH]c2ccccc12)C(=O)OCc1ccccc1 [wrw OBz] (H-[dW]-[dR]-[dW]-OBn) | 5 (5) μg/ml | 5 (5) μg/ml | 10 µg/mL (≈ 15.7 µM) | 200 µg/mL (≈ 314 µM) | – | – | – | – | – | – | – | – |
